This is an account of results in patent publication US10919941B2, “Functional lipid constructs” (KODE BIOTECH LIMITED, priority 2007, dated 2021).

What all share (format): cell-based, human
The test system of assay [1] is sera reactive with modified RBCs. Briefly: Neutralisation of reactive sera with free peptide, retested against modified RBCs (BioVue). More on the design: key: 0 or ‘−’ no agglutination; 0 or ‘−’ no agglutination; 1+ or 3=very weak agglutination; 1+ or 3=very weak agglutination; 2+ or 5=weak agglutination; 2+ or 5=weak agglutination; 3+ or 8=moderate strong agglutination; 3+ or 8=moderate strong agglutination; 4+ or 10/12=strong agglutination; 4+ or 10/12=strong agglutination; 4+ or 10/12=strong agglutination. The following applies: 40 μl plasma + 10 μl neutraliser 1.0 mg/ml, 30 minutes 37° C.; for Post-neutralisation serology, PAC74 / Post-neutralisation serology, TAP1: cells modified with M22. An excerpt:
Optionally, where F is a peptide, the method includes the preliminary step of: • Adding an amount of the peptide to the sample of the serum; where the amount of the peptide is sufficient to neutralize non-specific agglutination or confirm specificity of the reactive antibody.

The next assay deals with antibody negative serums. The assay can be described thus: False positive reactions of modified RBCs with antibody negative serums/plasma. More on the design: key to Reaction score BioVue AHG, PAC samples 1-46, 49, 50, 52, 53 / Reaction score BioVue AHG, PAC sample 47 / Reaction score BioVue AHG, PAC sample 48 / Reaction score BioVue AHG, PAC sample 51 / agglutination score, T series serum 2 / agglutination score, T series serum 42 / agglutination score, T series serum 63 / agglutination score, T series serum 62 / agglutination score, T series serum 7 / agglutination score, T series serum 20 / agglutination score, T series serum 48 / agglutination score, T series serum 22 / agglutination score, T series serum 39 / agglutination score, T series serum 23 / agglutination score, T series serum 30 / agglutination score, T series serum 4 / agglutination score, T series serum 31 / agglutination score, T series serum 44 / agglutination score, T series serum 61 / agglutination score, T series serum 18 / agglutination score, T series serum 21 / agglutination score, T series serum 28 / agglutination score, T series serum 55 / agglutination score, false positive serum T18 / agglutination score, false positive serum T21 / agglutination score, false positive serum T28 / agglutination score, false positive serum T55 / agglutination score, false positive serum T78 / agglutination score, false positive serum T92: 0 or ‘−’ no agglutination; 0 or ‘−’ no agglutination; 1+ or 3=very weak agglutination; 1+ or 3=very weak agglutination; 2+ or 5=weak agglutination; 2+ or 5=weak agglutination; 3+ or 8=moderate strong agglutination; 3+ or 8=moderate strong agglutination; 4+ or 10/12=strong agglutination; 4+ or 10/12=strong agglutination; 4+ or 10/12=strong agglutination.

The subject of assay [2] is Miltenberger Antibody Positive Panel. The assay can be described thus: Reactivity of modified RBCs against the Miltenberger Antibody Positive Panel. The following applies: for score vs panel 2 T217 / score vs panel 4 T7202 / score vs panel 8 T5896 / score vs panel 15 TAP2 / score vs panel 7 T8445: Table 9, construct 50 μg/ml; for agglutination score, Panel Serum #7 (T8445): cells modified at 50 μg/ml, 2 hour 37° C., BioVue AHG cards; for reactivity with Panel Serum #7 (T8445): construct 50 μg/ml (2 hours, 37° C.). More on the design: key to score vs panel 15 TAP2 / score vs panel 4 T7202 / score vs panel 8 T5896 / score vs panel 2 T217 / score vs panel 3 T165 / score vs panel 14 TAP1 / score vs panel 10 Mia / score vs panel 11 Mur / score vs panel 12 Gam / score vs panel 6 T6025 / score vs panel 7 T8445 / score vs panel 9 MIII / score vs panel 13 BoxH / reactivity with Panel Serum #7 (T8445) / agglutination score, Panel Serum #7 (T8445): 0 or ‘−’ no agglutination; 0 or ‘−’ no agglutination; 1+ or 3=very weak agglutination; 1+ or 3=very weak agglutination; 2+ or 5=weak agglutination; 2+ or 5=weak agglutination; 3+ or 8=moderate strong agglutination; 3+ or 8=moderate strong agglutination; 4+ or 10/12=strong agglutination; 4+ or 10/12=strong agglutination; 4+ or 10/12=strong agglutination. As to the method:
(§1) Red blood cells are modified by mixing 1 part by volume of washed packed red blood cells with 1 part by volume of peptide-lipid construct dispersed at a concentration of 10 to 1000 pg/ml in cell media (Celpresol™).
(§2) The suspensions are either: • 1. incubated for 2 hours at 37° C. before being washed and suspended in a cell medium for serological analysis at a concentration of 0.8 to 3% (Method 1); or • 2. incubated for 3 to 4 hours at room temperature (circa 25° C.) followed by 18 hours at 4° C. before being washed and suspended in a cell medium for serological analysis at a concentration of 0.8 to 3% (Method 2).
(§3) Serological reactions are graded or scored by either of two established systems (0 or ‘−’ no agglutination, 1+ or 3=very weak agglutination, 2+ or 5=weak agglutination, 3+ or 8=moderate strong agglutination, 4+ or 10/12=strong agglutination)
(§4) Serological platforms used are Tube (addition of reagents and reactants into plastic or glass serology tubes and after appropriate incubations, washing and centrifugation observing reactions macroscopically by eye and a 10× magnification eyepiece and scoring) and BioVue™ (addition of reactants into cassettes containing beads (including some reactants) and after appropriate incubations and centrifugation observing the reaction patterns trapped within the Gel matrix). BioVue is the serological column agglutination platform of Ortho-Clinical Diagnostics. Diamed is the serological column agglutination platform of Diamed AG.

Assay [3] concerns Miltenberger antibody positive sera. The assay can be described thus: BioVue AHG card column agglutination serology of modified red blood cells. More on the design: key: 0 or ‘−’ no agglutination; 0 or ‘−’ no agglutination; 1+ or 3=very weak agglutination; 1+ or 3=very weak agglutination; 2+ or 5=weak agglutination; 2+ or 5=weak agglutination; 3+ or 8=moderate strong agglutination; 3+ or 8=moderate strong agglutination; 4+ or 10/12=strong agglutination; 4+ or 10/12=strong agglutination; 4+ or 10/12=strong agglutination. To be noted: construct 50 μg/ml. On the procedure: as §1, §2, §3, §4

[4] abbreviates: head: cells modified with the peptide-lipid construct M22 (title: M28).
[5] abbreviates: larger series = 102, cells modified at 50 μg/ml, 2 hour 37° C., BioVue AHG cards.
Setting [6] is: cells modified at 50 μg/ml, 2 hour 37° C., BioVue AHG cards.
Setting [7] is: blood donor plasma, construct 50 μg/ml (2 hours, 37° C.).

No end group written: not given here.

As to M22 peptide (SQTNDKHKRDC), the “Post-neutralisation serology, PAC74” value in assay [1] is given as 8. In assay [1] (setting [4]), the “Post-neutralisation serology, PAC70” value is reported as 8 and the “Post-neutralisation serology, TAP2” value is on record as 3.

Turning to M28 peptide (TYPAHTANEC), in assay [1], the “Post-neutralisation serology, PAC74” value turned out to be 8 and the “Post-neutralisation serology, TAP1” value came out at 8. In assay [1] (setting [4]), the “Post-neutralisation serology, TAP2” value amounted to 8.

For “M29: DOPE peptide-lipid construct: Mur peptide PAHTANEVS, leader c, spacer CMG(2) (PAHTANEVSC; also: DOPE peptide-lipid construct via leader Cys, spacer CMG(2))”, in the assay with antibody negative serums (setting [5]), the “agglutination score, false positive serum T28” value turned out to be 5 and the “agglutination score, false positive serum T92” value is 8. Besides, in assay [2], the “score vs panel 2 T217” value stood at 0, the “score vs panel 4 T7202” value came out at 10, the “score vs panel 8 T5896” value came out at 0 and the “score vs panel 15 TAP2” value was 8. In assay [2], the “agglutination score, Panel Serum #7 (T8445)” value (from here on “agglutination score … (T8445)”) is 8 and the “reactivity with Panel Serum #7 (T8445)” value is recorded as 8.

With “M30: DOPE peptide-lipid construct: Mur peptide DTYPAHTANE, leader c, spacer CMG(2) (DTYPAHTANEC; also: DOPE peptide-lipid construct via leader Cys, spacer CMG(2))”, the “% positive” value with antibody negative serums (T series reactives (n = 58), BioVue AHG cards) is on record as 9%. In addition, in the assay with antibody negative serums (setting [6]), the “agglutination score, T series serum 2” value was found to be 10; the “agglutination score, T series serum 4” value was 8; the “agglutination score, T series serum 7” value was 0; the “agglutination score, T series serum 18” value is given as 0. In the assay with antibody negative serums (setting [6]), the “agglutination score, T series serum 20” value is reported as 0; the “agglutination score, T series serum 21” value came out at 0; the “agglutination score, T series serum 22” value turned out to be 0; the “agglutination score, T series serum 23” value stood at 0. Also, in the assay on antibody negative serums (setting [6]), the “agglutination score, T series serum 28” value was found to be 0; the “agglutination score, T series serum 30” value was 0; the “agglutination score, T series serum 31” value came out at 8; the “agglutination score, T series serum 39” value turned out to be 0. For the same substance, in the assay on antibody negative serums (setting [6]), the “agglutination score, T series serum 42” value is recorded as 0; the “agglutination score, T series serum 44” value is recorded as 10; the “agglutination score, T series serum 48” value was 0; the “agglutination score, T series serum 55” value stood at 0. Also, in the assay on antibody negative serums (setting [6]), the “agglutination score, T series serum 61” value is 10; the “agglutination score, T series serum 62” value is 0; the “agglutination score, T series serum 63” value is reported as 0. Moreover, in assay [2], the “score vs panel 2 T217” value is on record as 0, the “score vs panel 4 T7202” value was determined as 10, the “score vs panel 7 T8445” value amounted to 8 and the “score vs panel 8 T5896” value worked out at 0. In assay [2], the “score vs panel 15 TAP2” value amounted to 8; the “agglutination score … (T8445)” value is 8; the “reactivity with Panel Serum #7 (T8445)” value is reported as 8.

Turning to “M31: DOPE peptide-lipid construct: Mur peptide YPAHTANEVS, leader c, spacer CMG(2) (YPAHTANEVSC; also: DOPE peptide-lipid construct via leader Cys, spacer CMG(2))”, in the assay with antibody negative serums (setting [5]), the “agglutination score, false positive serum T21” value is reported as 10; the “agglutination score, false positive serum T28” value is 12; the “agglutination score, false positive serum T78” value was 8; the “agglutination score, false positive serum T92” value was determined as 12. Besides, in assay [2], the “score vs panel 2 T217” value worked out at 0, the “score vs panel 4 T7202” value came to 10, the “score vs panel 7 T8445” value is 8 and the “score vs panel 8 T5896” value is listed as 0. Also, in assay [2], the “score vs panel 15 TAP2” value came to 0; the “agglutination score … (T8445)” value came to 8; the “reactivity with Panel Serum #7 (T8445)” value worked out at 8.

Turning to “M40: DOPE peptide-lipid construct: Hil peptide EEETGETGQL, leader c, spacer CMG(2) (EEETGETGQLC; also: DOPE peptide-lipid construct via leader Cys, spacer CMG(2))”, in the assay on antibody negative serums (setting [7]), the “Reaction score BioVue AHG, PAC sample 47” value is 0; the “Reaction score BioVue AHG, PAC sample 48” value came to 0; the “Reaction score BioVue AHG, PAC sample 51” value is listed as 0; the “Reaction score BioVue AHG, PAC samples 1-46, 49, 50, 52, 53” value came to 0. Besides, the “% False Positives” value in the assay with antibody negative serums (panel of blood donor plasma samples (PAC), BioVue AHG, construct 50 μg/ml) came to 0%. In assay [3], the “BioVue score vs TAP1” value is listed as 0, the “BioVue score vs positive sample 2 T217 (T)” value was 0, the “BioVue score vs positive sample 3 T165 (Mur)” value is 0 and the “BioVue score vs positive sample 4 T7202 (M)” value is given as 0. In addition, the “BioVue score vs positive sample 8 T5896 (M + K + Mur)” value in assay [3] is reported as 0.

With “M41: DOPE peptide-lipid construct: Hil peptide ETGETGQLVH, leader c, spacer CMG(2) (ETGETGQLVHC; also: DOPE peptide-lipid construct via leader Cys, spacer CMG(2))”, in assay [3], the “BioVue score vs TAP1” value worked out at 0, the “BioVue score vs positive sample 2 T217 (T)” value turned out to be 0, the “BioVue score vs positive sample 3 T165 (Mur)” value came out at 0 and the “BioVue score vs positive sample 4 T7202 (M)” value is given as 0. Besides, the “BioVue score vs positive sample 8 T5896 (M + K + Mur)” value in assay [3] amounted to 0.

Take VMYASSG?: in assay [1], the “Post-neutralisation serology, PAC74” value came out at 8 and the “Post-neutralisation serology, TAP1” value is listed as 8. Further, in assay [1] (setting [4]), the “Post-neutralisation serology, PAC70” value came to 8; the “Post-neutralisation serology, PAC71” value is 5; the “Post-neutralisation serology, PAC72” value was determined as 5; the “Post-neutralisation serology, TAP2” value amounted to 8.
